Experimental data reported in ChEMBL document CHEMBL4610060, “Orally bioavailable amine-linked macrocyclic inhibitors of factor XIa” (Bioorg Med Chem Lett, 2020).

Assays:
[1] = Permeability across basolateral to apical side in human Caco2 cells; format: ADME, cell-based; conditions: Caco-2, read-out: permeability
[2] = Permeability across apical to basolateral side in human Caco2 cells; format: ADME, cell-based; conditions: Caco-2, read-out: permeability
Coagulation factor XI = Coagulation factor XI (Homo sapiens, UniProt P03951); test: Inhibition of recombinant human activated coagulation factor XI using pyro-Glu-Pro-Arg-pNA as substrate by spectrophotometry
Chain of Coagulation factor XI (P03951 19-387 limits assumed): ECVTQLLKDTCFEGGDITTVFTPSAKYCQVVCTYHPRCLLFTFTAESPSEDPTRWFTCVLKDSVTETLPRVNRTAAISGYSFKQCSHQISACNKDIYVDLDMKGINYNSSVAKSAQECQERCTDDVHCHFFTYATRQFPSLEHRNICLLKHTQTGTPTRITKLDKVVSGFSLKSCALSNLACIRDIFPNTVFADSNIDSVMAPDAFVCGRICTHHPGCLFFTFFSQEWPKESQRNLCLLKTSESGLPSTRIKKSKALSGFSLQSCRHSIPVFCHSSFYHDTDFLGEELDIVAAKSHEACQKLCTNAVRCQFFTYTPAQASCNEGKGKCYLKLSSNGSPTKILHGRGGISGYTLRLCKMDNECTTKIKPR
Chain of Coagulation factor XI (P03951 388-625 limits assumed): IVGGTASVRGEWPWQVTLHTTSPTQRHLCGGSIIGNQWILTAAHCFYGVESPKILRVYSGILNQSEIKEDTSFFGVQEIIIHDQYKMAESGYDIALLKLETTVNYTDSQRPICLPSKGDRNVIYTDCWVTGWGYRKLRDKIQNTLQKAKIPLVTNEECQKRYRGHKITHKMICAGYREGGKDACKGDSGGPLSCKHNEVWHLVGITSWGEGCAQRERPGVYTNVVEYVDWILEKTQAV

Plasma = test: Anticoagulant activity in human plasma assessed as EC1.5 of activated partial thromboplastin time by coagulometric analysis; format: functional
[3] = Metabolic stability in human liver microsomes assessed as half life; format: ADME, Microsome
[4] = Clearance in Sprague-Dawley rat at 0.31 mg/kg, iv or 0.61 mg/kg, po measured upto 24 hrs by LC-MS/MS analysis; format: ADME, organism-based; conditions: in vivo
[5] = Half life in Sprague-Dawley rat at 0.31 mg/kg, iv or 0.61 mg/kg, po measured upto 24 hrs by LC-MS/MS analysis; format: ADME, organism-based; conditions: in vivo
[6] = Volume of distribution at steady state in Sprague-Dawley rat at 0.31 mg/kg, iv or 0.61 mg/kg, po measured upto 24 hrs by LC-MS/MS analysis; format: ADME, organism-based; conditions: in vivo, read-out: Vdss
[7] = Oral bioavailability in Sprague-Dawley rat at 0.61 mg/kg measured upto 24 hrs by LC-MS/MS analysis; format: ADME, organism-based; conditions: in vivo
[8] = AUC in Sprague-Dawley rat at 0.61 mg/kg, po measured upto 24 hrs by LC-MS/MS analysis; format: ADME, organism-based; parameters: time < 24 hr, dose 0.61 mg/kg, route oral; conditions: in vivo
[9] = Clearance in Sprague-Dawley rat at 0.50 mg/kg, iv or 1.0 mg/kg, po measured upto 24 hrs by LC-MS/MS analysis; format: ADME, organism-based; conditions: in vivo, 0.5 mg/kg
[10] = Half life in Sprague-Dawley rat at 0.50 mg/kg, iv or 1.0 mg/kg, po measured upto 24 hrs by LC-MS/MS analysis; format: ADME, organism-based; conditions: in vivo
[11] = Volume of distribution at steady state in Sprague-Dawley rat at 0.50 mg/kg, iv or 1.0 mg/kg, po measured upto 24 hrs by LC-MS/MS analysis; format: ADME, organism-based; conditions: in vivo, 0.5 mg/kg, read-out: Vdss
[12] = Oral bioavailability in Sprague-Dawley rat at 1.0 mg/kg measured upto 24 hrs by LC-MS/MS analysis; format: ADME, organism-based; conditions: in vivo
[13] = AUC in Sprague-Dawley rat at 1.0 mg/kg, po measured upto 24 hrs by LC-MS/MS analysis; format: ADME, organism-based; parameters: dose 1 mg/kg, time < 24 hr, route oral; conditions: in vivo
[14] = Protein binding in rat assessed as unbound fraction; format: ADME
[15] = Metabolic stability in rat liver microsomes assessed as half life; format: ADME, Microsome
[16] = Clearance in Sprague-Dawley rat at 0.72 mg/kg, iv or 1.44 mg/kg, po measured upto 24 hrs by LC-MS/MS analysis; format: ADME, organism-based; conditions: in vivo
[17] = Half life in Sprague-Dawley rat at 0.72 mg/kg, iv or 1.44 mg/kg, po measured upto 24 hrs by LC-MS/MS analysis; format: ADME, organism-based; conditions: in vivo
[18] = Volume of distribution at steady state in Sprague-Dawley rat at 0.72 mg/kg, iv or 1.44 mg/kg, po measured upto 24 hrs by LC-MS/MS analysis; format: ADME, organism-based; conditions: in vivo, read-out: Vdss
[19] = Oral bioavailability in Sprague-Dawley rat at 1.44 mg/kg measured upto 24 hrs by LC-MS/MS analysis; format: ADME, organism-based; conditions: in vivo
[20] = AUC in Sprague-Dawley rat at 1.44 mg/kg, po measured upto 24 hrs by LC-MS/MS analysis; format: ADME, organism-based; parameters: time < 24 hr, dose 1.44 mg/kg, route oral; conditions: in vivo
[21] = Clearance in Sprague-Dawley rat at 1.13 mg/kg, iv or 2.27 mg/kg, po measured upto 24 hrs by LC-MS/MS analysis; format: ADME, organism-based; conditions: in vivo
[22] = Half life in Sprague-Dawley rat at 1.13 mg/kg, iv or 2.27 mg/kg, po measured upto 24 hrs by LC-MS/MS analysis; format: ADME, organism-based; conditions: in vivo
[23] = Volume of distribution at steady state in Sprague-Dawley rat at 1.13 mg/kg, iv or 2.27 mg/kg, po measured upto 24 hrs by LC-MS/MS analysis; format: ADME, organism-based; conditions: in vivo, read-out: Vdss
[24] = Oral bioavailability in Sprague-Dawley rat at 2.27 mg/kg measured upto 24 hrs by LC-MS/MS analysis; format: ADME, organism-based; conditions: in vivo
[25] = AUC in Sprague-Dawley rat at 2.27 mg/kg, po measured upto 24 hrs by LC-MS/MS analysis; format: ADME, organism-based; parameters: time < 24 hr, dose 2.27 mg/kg, route oral; conditions: in vivo
[26] = Clearance in Sprague-Dawley rat at 0.53 mg/kg, iv or 1.06 mg/kg, po measured upto 24 hrs by LC-MS/MS analysis; format: ADME, organism-based; conditions: in vivo
[27] = Half life in Sprague-Dawley rat at 0.53 mg/kg, iv or 1.06 mg/kg, po measured upto 24 hrs by LC-MS/MS analysis; format: ADME, organism-based; conditions: in vivo
[28] = Volume of distribution at steady state in Sprague-Dawley rat at 0.53 mg/kg, iv or 1.06 mg/kg, po measured upto 24 hrs by LC-MS/MS analysis; format: ADME, organism-based; conditions: in vivo, read-out: Vdss
[29] = Oral bioavailability in Sprague-Dawley rat at 1.06 mg/kg measured upto 24 hrs by LC-MS/MS analysis; format: ADME, organism-based; conditions: in vivo
[30] = AUC in Sprague-Dawley rat at 1.06 mg/kg, po measured upto 24 hrs by LC-MS/MS analysis; format: ADME, organism-based; parameters: time < 24 hr, dose 1.06 mg/kg, route oral; conditions: in vivo

Papp B→A [1] [×10⁻⁶ cm/s]	Papp A→B [2] [×10⁻⁶ cm/s]	Ki (Coagulation factor XI) [nM]	half-life [3] [min]	half-life [15] [min]	Structure (SMILES)	EC1.5 (Plasma) [µM]	other results
		370			COC(=O)Nc1ccc2c(c1)N[C@H](C(F)(F)F)CCCC[C@H](NC(=O)/C=C/c1cc(Cl)ccc1-n1cnnn1)c1nc-2c[nH]1		
13.3	< 1.5	0.22	7	34	CCOC(=O)[C@H]1CCCC[C@H](NC(=O)/C=C/c2cc(Cl)ccc2-n2cnnn2)c2nc(c[nH]2)-c2ccc(NC(=O)OC)cc2N1	0.86	clearance [9]: 2.8 mL/min/kg; half-life [10]: 90 min; Vd [11]: 0.2 L/kg; bioavailability [12]: 7%; AUC at 24 h [13]: 0.478 µM·h; fraction unbound [14]: < 0.002
		1.1	54	14	COC(=O)Nc1ccc2c(c1)N[C@@H](C(F)(F)F)CCCC[C@H](NC(=O)/C=C/c1cc(Cl)ccc1-n1cnnn1)c1nc-2c[nH]1	2.6	clearance [16]: 12 mL/min/kg; half-life [17]: 84 min; Vd [18]: 0.4 L/kg; bioavailability [19]: 9%; AUC at 24 h [20]: 0.307 µM·h; fraction unbound [14]: 0.002
		3.6	94		O=C(/C=C/c1cc(Cl)ccc1-n1cnnn1)N[C@H]1C/C=C/CCC(=O)Nc2ccc(C(=O)O)cc2-c2c[nH]c1n2	1.7	
		1.3	25		COC(=O)Nc1ccc2c(c1)N[C@@H](C(F)F)CCCC[C@H](NC(=O)/C=C/c1cc(Cl)ccc1-n1cnnn1)c1nc-2c[nH]1	2	
10.3	< 1.5	0.46	10	48	COC(=O)Nc1ccc2c(c1)N[C@@H](C(=O)OC)CCCC[C@H](NC(=O)/C=C/c1cc(Cl)ccc1-n1cnnn1)c1nc-2c[nH]1	0.55	clearance [26]: 3 mL/min/kg; half-life [27]: 108 min; Vd [28]: 0.3 L/kg; bioavailability [29]: 8%; AUC at 24 h [30]: 0.487 µM·h; fraction unbound [14]: < 0.002
		5.1	3		O=C(/C=C/c1cc(Cl)ccc1-n1cnnn1)N[C@H]1C/C=C/CCC(=O)Nc2ccccc2-c2c[nH]c1n2	2.9	

Second part, the molecule before the results:

Structure (SMILES)	Papp B→A [1] [×10⁻⁶ cm/s]	Papp A→B [2] [×10⁻⁶ cm/s]	Ki (Coagulation factor XI) [nM]	half-life [3] [min]	half-life [15] [min]	EC1.5 (Plasma) [µM]	other results
O=C(/C=C/c1cc(Cl)ccc1-n1cnnn1)N[C@H]1CCCCC(=O)Nc2ccccc2-c2c[nH]c1n2	20.5	< 1.5	48	6		>40	clearance [4]: 53 mL/min/kg; half-life [5]: 30 min; Vd [6]: 1.2 L/kg; bioavailability [7]: < 1%; AUC at 24 h [8]: 0.001 µM·h
COC(=O)Nc1ccc2c(c1)N[C@@H](C)CCCC[C@H](NC(=O)/C=C/c1cc(Cl)ccc1-n1cnnn1)c1nc-2c[nH]1			8.3	7		5.2	
O=C(/C=C/c1cc(Cl)ccc1-n1cnnn1)N[C@H]1C/C=C/CCC(=O)Nc2cc(F)ccc2-c2c[nH]c1n2			12	3		16	
COC(=O)Nc1ccc2c(c1)NC(=O)CCCC[C@H](NC(=O)/C=C/c1cc(Cl)ccc1-n1cnnn1)c1nc-2c[nH]1	6.7	< 1.5		90	76	0.3	clearance [21]: 10 mL/min/kg; half-life [22]: 60 min; Vd [23]: 0.3 L/kg; bioavailability [24]: < 1%; AUC at 24 h [25]: 0.024 µM·h
COC(=O)Nc1ccc2c(c1)N[C@@H](C(=O)N(C)C)CCCC[C@H](NC(=O)/C=C/c1cc(Cl)ccc1-n1cnnn1)c1nc-2c[nH]1			0.31	14		0.36	
